Legend:
weeds [1] = assay: Glasshouse weed control, HST inhibitors alone and with A22, pre-emergence; assay type: in vivo; conditions: 336 h, 14 DAT; for pest or weed control at 15.625 g/ha: HST inhibitor rate 15.625 g/ha; for pest or weed control at 62.5 g/ha: HST inhibitor rate 62.5 g/ha; for pest or weed control at 250 g/ha: HST inhibitor rate 250 g/ha
Outline: (§1)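 Weeds grown in glasshouse trays (24-27 C day, 18-21 C night, ~15 h photoperiod) and track-sprayed in 0.2% X77 at […], pre-emergence or post-emergence at about 7-12 d. HPPD inhibitor A22 applied at 2 g/ha alone or mixed with HST herbicides. Damage scored 0–100% at 14 DAT; synergy calculated by Colby formula.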

weeds [2] = assay: Glasshouse weed control, HST inhibitors alone and with A22, post-emergence; assay type: in vivo; conditions: 336 h, 14 DAT, single replicate, read-out: % control score, Obs; for pest or weed control at 15.625 g/ha: 15.625 g/ha alone; for pest or weed control at 62.5 g/ha: 62.5 g/ha alone; for pest or weed control at 250 g/ha: 250 g/ha alone
Outline: as §1

Arabidopsis HST = target: T1, Arabidopsis HST (Arabidopsis thaliana, UniProt Q1ACB3); assay: HST total extraction (non TLC) assay, recombinant Arabidopsis HST from insect cells; assay type: biochemical
T1 construct: GST (factor Xa cleavage site) (N); made in house; host or cells: Sf9 insect cells (baculovirus, pAcG3X), membrane fraction
T1 sequence (Q1ACB3 70-386): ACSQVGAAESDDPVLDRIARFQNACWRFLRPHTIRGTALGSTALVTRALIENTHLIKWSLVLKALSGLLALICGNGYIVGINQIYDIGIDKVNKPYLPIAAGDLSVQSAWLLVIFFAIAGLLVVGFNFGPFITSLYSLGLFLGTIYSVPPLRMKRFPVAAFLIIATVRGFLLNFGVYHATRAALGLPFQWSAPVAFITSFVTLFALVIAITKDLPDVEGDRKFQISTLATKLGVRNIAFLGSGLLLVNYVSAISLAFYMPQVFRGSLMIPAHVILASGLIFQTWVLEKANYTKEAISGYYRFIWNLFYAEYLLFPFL

[3] = BRAPL, read-out: BRAPL Obs, % control score
[4] = PANMI, read-out: PANMI Obs, % control score
[5] = SIDSP, read-out: SIDSP Obs, % control score
[6] = Digitaria sanguinalis, DIGSA, read-out: DIGSA Obs, % control score
[7] = Echinochloa crus-galli, ECHCG, read-out: ECHCG Obs, % control score
[8] = Setaria faberi, SETFA, read-out: SETFA Obs, % control score

`O=c1c(-c2cc(Cl)ccc2C(F)(F)F)c(O)c2nccnc2n1CC(F)F` [Compound 2.19] was tested, and the pest or weed control at 15.625 g/ha (weeds [1]; [3]) was 0%, the pest or weed control at 62.5 g/ha (weeds [1]; [3]) was 10% and the pest or weed control at 250 g/ha (weeds [1]; [3]) was 40%. For the same compound, the pest or weed control at 15.625 g/ha (weeds [1]; [4]) was 0%, the pest or weed control at 62.5 g/ha (weeds [1]; [4]) was 0% and the pest or weed control at 250 g/ha (weeds [1]; [4]) was 60%. The pest or weed control at 15.625 g/ha (weeds [1]; [5]) was 0%, the pest or weed control at 62.5 g/ha (weeds [1]; [5]) was 2% and the pest or weed control at 250 g/ha (weeds [1]; [5]) was 10%. It also gave a pest or weed control at 15.625 g/ha (weeds [1]; [6]) of 0%, a pest or weed control at 62.5 g/ha (weeds [1]; [6]) of 0% and a pest or weed control at 250 g/ha (weeds [1]; [6]) of 20%. It also gave a pest or weed control at 15.625 g/ha (weeds [1]; [7]) of 0%, a pest or weed control at 62.5 g/ha (weeds [1]; [7]) of 50% and a pest or weed control at 250 g/ha (weeds [1]; [7]) of 90%. For the same compound, the pest or weed control at 15.625 g/ha (weeds [1]; [8]) was 0%, the pest or weed control at 62.5 g/ha (weeds [1]; [8]) was 5% and the pest or weed control at 250 g/ha (weeds [1]; [8]) was 60%. The pest or weed control at 15.625 g/ha (weeds [2]; BRAPL) was 20%, the pest or weed control at 62.5 g/ha (weeds [2]; BRAPL) was 70% and the pest or weed control at 250 g/ha (weeds [2]; BRAPL) was 80%. It also gave a pest or weed control at 15.625 g/ha (weeds [2]; PANMI) of 40%, a pest or weed control at 62.5 g/ha (weeds [2]; PANMI) of 70% and a pest or weed control at 250 g/ha (weeds [2]; PANMI) of 85%. The pest or weed control at 15.625 g/ha (weeds [2]; SIDSP) was 15%, the pest or weed control at 62.5 g/ha (weeds [2]; SIDSP) was 30% and the pest or weed control at 250 g/ha (weeds [2]; SIDSP) was 50%. For the same compound, the pest or weed control at 15.625 g/ha (weeds [2]; Digitaria sanguinalis, DIGSA) was 30%, the pest or weed control at 62.5 g/ha (weeds [2]; Digitaria sanguinalis, DIGSA) was 50% and the pest or weed control at 250 g/ha (weeds [2]; Digitaria sanguinalis, DIGSA) was 70%. For the same compound, the pest or weed control at 15.625 g/ha (weeds [2]; Echinochloa crus-galli, ECHCG) was 30%, the pest or weed control at 62.5 g/ha (weeds [2]; Echinochloa crus-galli, ECHCG) was 45% and the pest or weed control at 250 g/ha (weeds [2]; Echinochloa crus-galli, ECHCG) was 75%. It also gave a pest or weed control at 15.625 g/ha (weeds [2]; Setaria faberi, SETFA) of 30%, a pest or weed control at 62.5 g/ha (weeds [2]; Setaria faberi, SETFA) of 60% and a pest or weed control at 250 g/ha (weeds [2]; Setaria faberi, SETFA) of 80%. For the same compound, the “Estimated IC50 (ppm)” value (Arabidopsis HST) was 6 ppm.
`O=c1c(-c2c(Cl)cccc2C(F)(F)F)c(O)c2nccnc2n1CC(F)F` [Compound 2.20] was tested, and the pest or weed control at 15.625 g/ha (weeds [1]; [3]) was 0%, the pest or weed control at 62.5 g/ha (weeds [1]; [3]) was 10% and the pest or weed control at 250 g/ha (weeds [1]; [3]) was 60%. For the same compound, the pest or weed control at 15.625 g/ha (weeds [1]; [4]) was 0%, the pest or weed control at 62.5 g/ha (weeds [1]; [4]) was 2% and the pest or weed control at 250 g/ha (weeds [1]; [4]) was 30%. For the same compound, the pest or weed control at 15.625 g/ha (weeds [1]; [5]) was 0%, the pest or weed control at 62.5 g/ha (weeds [1]; [5]) was 0% and the pest or weed control at 250 g/ha (weeds [1]; [5]) was 5%. The pest or weed control at 15.625 g/ha (weeds [1]; [6]) was 0%, the pest or weed control at 62.5 g/ha (weeds [1]; [6]) was 0% and the pest or weed control at 250 g/ha (weeds [1]; [6]) was 20%. It also gave a pest or weed control at 15.625 g/ha (weeds [1]; [7]) of 1%, a pest or weed control at 62.5 g/ha (weeds [1]; [7]) of 15% and a pest or weed control at 250 g/ha (weeds [1]; [7]) of 90%. The pest or weed control at 15.625 g/ha (weeds [1]; [8]) was 0%, the pest or weed control at 62.5 g/ha (weeds [1]; [8]) was 20% and the pest or weed control at 250 g/ha (weeds [1]; [8]) was 65%. The pest or weed control at 15.625 g/ha (weeds [2]; BRAPL) was 30%, the pest or weed control at 62.5 g/ha (weeds [2]; BRAPL) was 50% and the pest or weed control at 250 g/ha (weeds [2]; BRAPL) was 95%. For the same compound, the pest or weed control at 15.625 g/ha (weeds [2]; PANMI) was 15%, the pest or weed control at 62.5 g/ha (weeds [2]; PANMI) was 45% and the pest or weed control at 250 g/ha (weeds [2]; PANMI) was 85%. The pest or weed control at 15.625 g/ha (weeds [2]; SIDSP) was 10%, the pest or weed control at 62.5 g/ha (weeds [2]; SIDSP) was 50% and the pest or weed control at 250 g/ha (weeds [2]; SIDSP) was 55%. For the same compound, the pest or weed control at 15.625 g/ha (weeds [2]; Digitaria sanguinalis, DIGSA) was 20%, the pest or weed control at 62.5 g/ha (weeds [2]; Digitaria sanguinalis, DIGSA) was 60% and the pest or weed control at 250 g/ha (weeds [2]; Digitaria sanguinalis, DIGSA) was 80%. For the same compound, the pest or weed control at 15.625 g/ha (weeds [2]; Echinochloa crus-galli, ECHCG) was 20%, the pest or weed control at 62.5 g/ha (weeds [2]; Echinochloa crus-galli, ECHCG) was 60% and the pest or weed control at 250 g/ha (weeds [2]; Echinochloa crus-galli, ECHCG) was 90%. For the same compound, the pest or weed control at 15.625 g/ha (weeds [2]; Setaria faberi, SETFA) was 25%, the pest or weed control at 62.5 g/ha (weeds [2]; Setaria faberi, SETFA) was 65% and the pest or weed control at 250 g/ha (weeds [2]; Setaria faberi, SETFA) was 80%. For the same compound, the “Estimated IC50 (ppm)” value (Arabidopsis HST) was 16 ppm.
For `CC1=NN(C)C(=O)C(c2c(C)cc(C)cc2C)C1=O` (stereo not drawn) [Compound 6.1], the pest or weed control at 15.625 g/ha (weeds [1]; [3]) was 0%, the pest or weed control at 62.5 g/ha (weeds [1]; [3]) was 0% and the pest or weed control at 250 g/ha (weeds [1]; [3]) was 10%. The pest or weed control at 15.625 g/ha (weeds [1]; [4]) was 0%, the pest or weed control at 62.5 g/ha (weeds [1]; [4]) was 0% and the pest or weed control at 250 g/ha (weeds [1]; [4]) was 40%. It also gave a pest or weed control at 15.625 g/ha (weeds [1]; [5]) of 0%, a pest or weed control at 62.5 g/ha (weeds [1]; [5]) of 0% and a pest or weed control at 250 g/ha (weeds [1]; [5]) of 0%. The pest or weed control at 15.625 g/ha (weeds [1]; [6]) was 0%, the pest or weed control at 62.5 g/ha (weeds [1]; [6]) was 0% and the pest or weed control at 250 g/ha (weeds [1]; [6]) was 2%. The pest or weed control at 15.625 g/ha (weeds [1]; [7]) was 0%, the pest or weed control at 62.5 g/ha (weeds [1]; [7]) was 1% and the pest or weed control at 250 g/ha (weeds [1]; [7]) was 60%. The pest or weed control at 15.625 g/ha (weeds [1]; [8]) was 0%, the pest or weed control at 62.5 g/ha (weeds [1]; [8]) was 2% and the pest or weed control at 250 g/ha (weeds [1]; [8]) was 20%. The pest or weed control at 15.625 g/ha (weeds [2]; BRAPL) was 10%, the pest or weed control at 62.5 g/ha (weeds [2]; BRAPL) was 40% and the pest or weed control at 250 g/ha (weeds [2]; BRAPL) was 75%. For the same compound, the pest or weed control at 15.625 g/ha (weeds [2]; PANMI) was 2%, the pest or weed control at 62.5 g/ha (weeds [2]; PANMI) was 50% and the pest or weed control at 250 g/ha (weeds [2]; PANMI) was 80%. The pest or weed control at 15.625 g/ha (weeds [2]; SIDSP) was 5%, the pest or weed control at 62.5 g/ha (weeds [2]; SIDSP) was 15% and the pest or weed control at 250 g/ha (weeds [2]; SIDSP) was 20%. For the same compound, the pest or weed control at 15.625 g/ha (weeds [2]; Digitaria sanguinalis, DIGSA) was 0%, the pest or weed control at 62.5 g/ha (weeds [2]; Digitaria sanguinalis, DIGSA) was 10% and the pest or weed control at 250 g/ha (weeds [2]; Digitaria sanguinalis, DIGSA) was 30%. For the same compound, the pest or weed control at 15.625 g/ha (weeds [2]; Echinochloa crus-galli, ECHCG) was 0%, the pest or weed control at 62.5 g/ha (weeds [2]; Echinochloa crus-galli, ECHCG) was 5% and the pest or weed control at 250 g/ha (weeds [2]; Echinochloa crus-galli, ECHCG) was 50%. For the same compound, the pest or weed control at 15.625 g/ha (weeds [2]; Setaria faberi, SETFA) was 0%, the pest or weed control at 62.5 g/ha (weeds [2]; Setaria faberi, SETFA) was 20% and the pest or weed control at 250 g/ha (weeds [2]; Setaria faberi, SETFA) was 70%. The “Estimated IC50 (ppm)” value (Arabidopsis HST) was 63 ppm.
